Experimental data published in patent US20180360924A1, “TELOMERE EXTENSION AND ANTI-INFLAMMATORY AGENTS FOR CELL REGENERATION” (THE METHODIST HOSPITAL SYSTEM, priority 2015, published 2018).

Test system: Human chondrocytes
Test: Telomere length in chondrocytes, relative quantification for the telomeric repeat (T/S-ratio)
Assay type: cell-based
Conditions: LFA transfection, n=3, P65i high

RelA/NFkB p65 [pSer529, pSer536] inhibitor peptide [P65i]
% increase in TL: 4.0%
T/S-ratio: 1.01
